Experimental data published in patent US20230241164A1, “C-Type Natriuretic Peptides and Methods Thereof in Treating Cancer” (PHARMAIN CORPORATION, priority 2020, published 2023).
Where “and” joins values, the source holds several entries; their conditions need not be identical. Identical values can stand only once. Numbered stars: 1 amine (or outer) side, 2 acyl side, 3 side chain; on linkers, the order of the positions; unused ones are H or OH. Bridge positions count the residues as written; N and C are the ends. Square brackets hold non-standard residues; d marks the D form. Peptide text beside a SMILES is read from it. * marks the point of attachment. C18 diacid = O=C(O)CCCCCCCCCCCCCCCCC(=O)*; γGlu = O=C(O)[C@H](CCC(=O)[*:2])N[*:1]; Aad = N[C@@H](CCCC(=O)O)C(=O)O; AEEA = NCCOCCOCC(=O)O

What was measured:
[1] = tested on: TRAMPC-1 mouse prostate cancer cells; test: Prostate cancer subcutaneous model, treatment from day 6, tumor size; assay type: in vivo, mice; details: Anti-CD8 Ab 5 mg/kg i.p.
Experimental: In this study, male C57BL/6J mice (6 weeks old, male, n=10) were purchased from Kyodo (Saga, Japan) and maintained under a 12-hour light/12-hour dark cycle with free access to water and standard mouse diet (MF diet; Oriental Yeast Co., Ltd. Tokyo Japan). Mice were implanted with TRAMPC-1 mouse prostate cancer cells (1,000,000 cells/mouse) (ATCC, Manassas, Va.) in the subcutaneous. From the 6th day (early stage of tumor growth), mice were treated with a bolus dose of dCNP (described in Example 1) (0.3 mg/kg s.c. or 1.0 mg/kg s.c.) with or without Anti-CD8 antibody (a-CD8; 5 mg/Kg i.p.; BioX cells, West Lebanon, N.H.) in buffer containing Methionine 100 mM (Tokyo Chemical Industry Co., Ltd., Tokyo, Japan); Sucrose 100 mM (Tokyo Chemical Industry Co., Ltd.); Histidine 50 mM (Tokyo Chemical Industry Co., Ltd.); in H2O (Otsuka Pharmaceutical, Tokushima, Japan)], Docetaxel (1 mg/kg i.p.) in Saline with or without Anti-CD8 Ab (5 mg/kg i.p.) as reference control, and or with Phosphate buffered saline (PBS) alone via i.p. as control. Mice were treated total of 14 days (5 days of once daily, 2 days of rest, 5 days of once-daily treatment and 2 days rest). Anti-CD8 Ab (a-CD8) was administered on −2, 1, 4, 7, 10 and 13th day. Tumor sizes were measured with caliper. Statistical analysis was performed by Student t-tests by using GraphPad Prism *P<0.0001 vs. Control or a-CD8 group (n=10). […]

[2] = tested on: TRAMPC-1 mouse prostate cancer cells; test: Prostate cancer subcutaneous model, treatment from day 19, tumor size; assay type: in vivo, mice
Experimental: (§1) In this study, male C57BL/6J mice (6 weeks old, male, n=10) were purchased from Kyodo (Saga, Japan) and maintained under a 12-hour light/12-hour dark cycle with free access to water and standard mouse diet (MF diet; Oriental Yeast Co., Ltd. Tokyo Japan). Mice were implanted with TRAMPC-1 mouse prostate cancer cells (1,000,000 cells/mouse) (ATCC, Manassas, Va.) in the subcutaneous. From the 19th day (averaged tumor size was 70 mm3), mice were treated with a bolus dose of long acting CNP derivative or dCNP (described in Example 1) (0.3 mg/kg s.c. or 1.0 mg/kg s.c.) in buffer [Methionine 100 mM (Tokyo Chemical Industry Co., Ltd., Tokyo, Japan); Sucrose 100 mM (Tokyo Chemical Industry Co., Ltd.); Histidine 50 mM (Tokyo Chemical Industry Co., Ltd.); in H2O (Otsuka Pharmaceutical. Tokushima, Japan)], Docetaxel (DTX1 mg/kg i.p.) in Saline, all with or without anti-CD8 (5 mg/Kg i.p.; BioX cell; West Lebanon, N.H.) or Phosphate buffered saline (PBS) alone via i.p. All Docetaxel groups were used as mechanism of action comparator chemotherapeutic agent. Mice were treated total of two weeks (5 days of once daily, 2 days of rest, 5 days of once-daily treatment and 2 days rest). Anti-CD8 Ab was administered every 3 days starting day 19th. Tumor sizes were measured with caliper.

[3] = tested on: TRAMPC-1 mouse prostate cancer cells; test: Gene expression within prostate tumor (quantitative RT-PCR); assay type: in vivo, mice; details: tumor harvested at day 30
Experimental: as §1, with “Pharmaceutical,” for “Pharmaceutical.”, “(DTX 1” for “(DTX1”, “for 2” for “total of two”, “was harvested at day 30 and extracted RNA, then Quantitative RT-PCR was performed; error bars are SEM. Statistical analysis was performed by Student t-tests by using GraphPad Prism *P<0.05 or **P<0.01 vs. Control group (n=3-6).” for “sizes were measured with caliper.”

[4] = Pharmacokinetic study of dCNP-s1 and dCNP-s2: plasma CNP after subcutaneous bolus in CD-1 mice; assay type: in vivo; details: subcutaneous bolus 2.0 mg/Kg, FIG. 30
Experimental: For this pharmacokinetic study, all animals (mice) for this study were maintained under a 12-hour light/12-hour dark cycle with free access to water and standard mouse diet (Lab Pico Rodent #5053; Animal Specialties, Woodburn, Oreg.). Male CD-1 mice (6-8 weeks old; Charles River, Hollister, Calif.) were treated with 2.0 mg/Kg of CNP derivative s1 (dCNP-s1; PharmaIN Corp, Bothell, Wash.), and CNP derivative s2 (dCNP-s2: PharmaIN Corp, Bothell, Wash.) via subcutaneous bolus administration between the shoulder blades.

[5] = Immune activation in normal healthy mice (blood FACS, spleen gene expression); assay type: in vivo; details: normal healthy mice, 0.1, 0.3, 1.0 mg/kg s.c. day 1-5
Experimental: In this study, male C57BL/6J mice (6 weeks old n=3) were purchased from Kyodo (Saga, Japan) and maintained under a 12-hour light/12-hour dark cycle with free access to water and standard mouse diet (MF diet; Oriental Yeast Co., Ltd. Tokyo Japan). Mice were treated with a bolus dose of 0, 0.1, 0.3, and 1.0 mg/kg CNP derivative or dCNP (described in Example 1) in buffer (Methionine 100 mM (Tokyo Chemical Industry Co., Ltd., Tokyo, Japan), sucrose 100 mM (Tokyo Chemical Industry Co., Ltd.), histidine 50 mM (Tokyo Chemical Industry Co., Ltd.); in H2O (Otsuka Pharmaceutical, Tokushima, Japan)) or buffer alone (for control group). Administration is by bolus subcutaneous injection under isoflurane anesthesia, at day 1, 2, 3, 4, and 5. Blood was harvested on day 5 under the isoflurane vapor and plasma were obtained by added EDTA and red blood cells were removed by pharma lyse (BD, Franklin Lakes, N.J.). Cells were analyzed by FACS (BD, Franklin lakes, NJ). The spleen was harvested on day 5 under isoflurane vapor, then placed in the Tri reagent (Cosmobio, Tokyo, Japan) for further analysis. Statistical analysis was performed by Student t-tests by using GraphPad Prism *P<0.05 vs. Control. **P<0.01 vs Control (n=5).

[6] = Pharmacokinetic study: plasma CNP (ELISA) after subcutaneous bolus in CD-1 mice; details: subcutaneous 2.0 mg/Kg, FIG. 1A
Experimental: All test articles were formulated or dissolved in 100 mM sorbitol, 100 mM methionine, 20 mM histidine, pH 6.0. […] Blood samples were processed in K2EDTA tubes to obtain plasma. Plasma was analyzed by commercially available CNP ELISA kit from Phoenix Pharmaceuticals (cat #EKE-012-03). […] [SEQ ID NO. 6]. […] The details of the polymer are described in Castillo et al., Pharm. Res., (2012) 29(1); p 306-18, herein incorporated by reference in its entirety.
Error bars represent standard deviation of n=5 plasma samples.

[7] = bolus injection, healthy human volunteers; cited from earlier work
[8] = species not stated; cited from earlier work

CC(=O)O[C@@]12CO[C@@H]1C[C@H](O)[C@@]1(C)C(=O)[C@H](O)C3=C(C)[C@@H](OC(=O)[C@H](O)[C@@H](NC(=O)OC(C)(C)C)c4ccccc4)C[C@@](O)([C@@H](OC(=O)c4ccccc4)[C@H]21)C3(C)C [Docetaxel]
tumor growth suppressing effect in the presence of Anti-CD8 antibody [1]: remained | anti-tumor effect with anti-CD8 antibody ([2]; anti-CD8 5 mg/Kg i.p.): could not be neutralized by Anti-CD8 | Ang 2 gene expression within the prostate tumor [3]: not | TGFβ gene expression within the prostate tumor [3]: not | alpha-smooth muscle actin (α-SMA) gene expression within the prostate tumor [3]: not

CC[C@H](C)[C@@H]1NC(=O)[C@H](CCCNC(=N)N)NC(=O)[C@H](CC(=O)O)NC(=O)[C@H](CC(C)C)NC(=O)[C@H](CCCCN)NC(=O)[C@H](CC(C)C)NC(=O)CNC(=O)[C@H](Cc2ccccc2)NC(=O)[C@@H](NC(=O)CNC(=O)COCCOCCNC(=O)COCCOCCNC(=O)CCCCCCCCCCCCCCCCC(=O)O)CSSC[C@@H](C(=O)O)NC(=O)CNC(=O)[C@H](CC(C)C)NC(=O)CNC(=O)[C@H](CO)NC(=O)[C@H](CCCC(N)=O)NC(=O)[C@H](CO)NC(=O)CNC1=O [dCNP-s1] ({C18 diacid-AEEA-AEEA}-GCFGLKLDRIGS[Aad](NH2)SGLGC-OH; disulfide 2-18)
blood level of CNP relative to native CNP at similar weight/Kg dose [4]: 10 fold

CC[C@H](C)[C@@H]1NC(=O)[C@H](CCCNC(=N)N)NC(=O)[C@H](CC(=O)O)NC(=O)[C@H](CC(C)C)NC(=O)[C@H](CCCCN)NC(=O)[C@H](CC(C)C)NC(=O)CNC(=O)[C@H](Cc2ccccc2)NC(=O)[C@@H](NC(=O)CNC(=O)COCCOCCNC(=O)COCCOCCNC(=O)CC[C@H](NC(=O)CCCCCCCCCCCCCCCCC(=O)O)C(=O)O)CSSC[C@@H](C(=O)O)NC(=O)CNC(=O)[C@H](CC(C)C)NC(=O)CNC(=O)[C@H](CO)NC(=O)[C@H](CCCC(N)=O)NC(=O)[C@H](CO)NC(=O)CNC1=O [dCNP-s2] ({C18 diacid-γGlu-AEEA-AEEA}-GCFGLKLDRIGS[Aad](NH2)SGLGC-OH; disulfide 2-18)
blood level of CNP relative to native CNP at similar weight/Kg dose [4]: 10 fold

CCCCCCCCCCCCCCCCCC(=O)N[C@@H](CCCCN)C(=O)N[C@@H](CCCCN)C(=O)N[C@@H](CCCCN)C(=O)N[C@@H](CCCCN)C(=O)NCC(=O)NCC(=O)NCC(=O)NCC(=O)N[C@@H](CC(C)C)C(=O)N[C@@H](CO)C(=O)N[C@@H](CCCCN)C(=O)NCC(=O)N[C@H]1CSSC[C@@H](C(=O)O)NC(=O)CNC(=O)[C@H](CC(C)C)NC(=O)CNC(=O)[C@H](CO)NC(=O)[C@H](CCSC)NC(=O)[C@H](CO)NC(=O)CNC(=O)[C@H]([C@@H](C)CC)NC(=O)[C@H](CCCNC(=N)N)NC(=O)[C@H](CC(=O)O)NC(=O)[C@H](CC(C)C)NC(=O)[C@H](CCCCN)NC(=O)[C@H](CC(C)C)NC(=O)CNC(=O)[C@H](Cc2ccccc2)NC1=O [dCNP]
lethality ([2]; TRAMPC-1 tumor bearing mice): less lethal than cytotoxic chemotherapeutic agent (Docetaxel) | cytotoxic (CD8) T-cells in blood [5]: increase

CC[C@H](C)[C@@H]1NC(=O)[C@H](CCCNC(=N)N)NC(=O)[C@H](CC(=O)O)NC(=O)[C@H](CC(C)C)NC(=O)[C@H](CCCCN)NC(=O)[C@H](CC(C)C)NC(=O)CNC(=O)[C@H](Cc2ccccc2)NC(=O)[C@@H](NC(=O)CNC(=O)[C@H](CCCCN)NC(=O)[C@H](CO)NC(=O)[C@H](CC(C)C)NC(=O)CN)CSSC[C@@H](C(=O)O)NC(=O)CNC(=O)[C@H](CC(C)C)NC(=O)CNC(=O)[C@H](CO)NC(=O)[C@H](CCSC)NC(=O)[C@H](CO)NC(=O)CNC1=O [native CNP]
plasma CNP [6]: low plasma level | heart rate [7]: significant increase | systolic and diastolic blood pressure [7]: significant decrease | half-life [8]: 2 to 13 min and 2 min
